From patent US11208423B2, “Pyridinamine-pyridone and pyrimidinamine- pyridone compounds” (Sprint Bioscience AB, priority 2017, dated 2021)

Tests used:
Vps34 enzyme = Vps34 enzyme (Homo sapiens (Human), UniProt Q8NEB9); test: Vps34 Biochemical Assay (Adapta kinase assay); conditions: 20 μM ATP / 200 μM PI:PS substrate mix, 1 h at room temperature, TR-FRET, read-out: Median IC50 nM Adapta
Protocol: Dilution series of compounds of the invention were prepared in DMSO at 100 times the final assay concentration (n1=n0/3 in 10 points). The compounds were further diluted to 4 times the assay concentration in assay buffer (Life technologies buffer Q, PV5125, diluted 5 times supplemented with 2 mM DTT and 2 mM MnCl2). 2.5 μl of the diluted compounds were added to a 384 well assay plate followed by 2.5 μl of 16.5 nM Vps34 enzyme (Life technologies, PV5126). Enzyme and compounds were pre-incubated at rt for 15 min. Then 5 μl of substrate mix containing 20 μM ATP (Life technologies, PV3227) and 200 μM PI:PS substrate (Life technologies, PV5122) in assay buffer was added to the wells containing compound and enzyme. Mixing was performed by pipetting several times. The reaction was incubated at room temperature for 1 h. Then 5 μl stop-detection mix, prepared as described in the Adapta kinase assay kit instructions (Life technologies, PV5099) containing Adapta Eu-anti-ADP antibody (2.3 nM), Alexa Fluor 647 ADP tracer (9 nM) and EDTA (30 mM) in TR-FRET buffer, was added to quench the reaction. Mixing was performed by pipetting several times. The assay plate was then incubated at room temperature for 30 min and read with Artemis micro plate reader. Percent inhibition of the compounds as compared to DMSO treated control samples was calculated. By the use of Dotmatics software compound concentration versus percent inhibition was fitted to generate IC50 values.

[1] = tested on: autophagy in HOS cells (GFP-LC3); test: High Content Screening Autophagy Assay (GFP-LC3 foci); type: cell-based; conditions: Homo sapiens; HOS cells expressing GFP-LC3; autophagy activated with KU-0063794 500 nM plus Bafilomycin A1 5 nM; 6 hours; foci area per cell; read-out: Median IC50 (μM) Cellular assay
Protocol: High Content Screening Autophagy Assay
Human osteosarcoma cells (HOS) stably expressing a Green Fluorescent Protein (GFP) tagged LC3 (GFP-LC3) were used to determine the inhibitory effect on autophagy of proprietary compounds. For that purpose, autophagy was activated by using the mTOR inhibitor KU-0063794 at 500 nM in the presence of Bafilomycin A1 (Sigma-Aldrich) at 5 nM. Shortly, cells were plated overnight in clear bottom 96-well plates in DMEM—High Modified media (Hi-Clone Cat #SH30285.01). At the start of the experiment, the media was removed and replaced with fresh media containing the mTOR inhibitor, Bafilomycin A1 and the vehicle or a test compound as indicated. After 6 hours the media was removed, cells were washed twice with ice-cold phosphate buffered saline (PBS) and fixed with 4% paraformaldehyde for 20 minutes at room temperature. Then the cells were washed twice with ice-cold PBS before adding Hoechst 33342 at 1 μg/ml in PBS for nuclear staining. After incubation overnight at 4° C., cells were washed once with PBS to remove the excess of dye and 100 μl of PBS was added to each well. Images were acquired at 20× magnification, 6 images per well, using the ImageXpress automated microscope (Molecular Devices Inc.) and analyzed with MetaXpress software to identify LC3-GFP foci. Foci area per cell values were used to generate dose response curves and IC50 values were calculated using the non-linear fitting analysis in GraphPad Prism software.
The results of the assay are shown in Table 2 (Median IC50 μM HOS-LC3).

Sequence of Vps34 enzyme (Q8NEB9 whole entry): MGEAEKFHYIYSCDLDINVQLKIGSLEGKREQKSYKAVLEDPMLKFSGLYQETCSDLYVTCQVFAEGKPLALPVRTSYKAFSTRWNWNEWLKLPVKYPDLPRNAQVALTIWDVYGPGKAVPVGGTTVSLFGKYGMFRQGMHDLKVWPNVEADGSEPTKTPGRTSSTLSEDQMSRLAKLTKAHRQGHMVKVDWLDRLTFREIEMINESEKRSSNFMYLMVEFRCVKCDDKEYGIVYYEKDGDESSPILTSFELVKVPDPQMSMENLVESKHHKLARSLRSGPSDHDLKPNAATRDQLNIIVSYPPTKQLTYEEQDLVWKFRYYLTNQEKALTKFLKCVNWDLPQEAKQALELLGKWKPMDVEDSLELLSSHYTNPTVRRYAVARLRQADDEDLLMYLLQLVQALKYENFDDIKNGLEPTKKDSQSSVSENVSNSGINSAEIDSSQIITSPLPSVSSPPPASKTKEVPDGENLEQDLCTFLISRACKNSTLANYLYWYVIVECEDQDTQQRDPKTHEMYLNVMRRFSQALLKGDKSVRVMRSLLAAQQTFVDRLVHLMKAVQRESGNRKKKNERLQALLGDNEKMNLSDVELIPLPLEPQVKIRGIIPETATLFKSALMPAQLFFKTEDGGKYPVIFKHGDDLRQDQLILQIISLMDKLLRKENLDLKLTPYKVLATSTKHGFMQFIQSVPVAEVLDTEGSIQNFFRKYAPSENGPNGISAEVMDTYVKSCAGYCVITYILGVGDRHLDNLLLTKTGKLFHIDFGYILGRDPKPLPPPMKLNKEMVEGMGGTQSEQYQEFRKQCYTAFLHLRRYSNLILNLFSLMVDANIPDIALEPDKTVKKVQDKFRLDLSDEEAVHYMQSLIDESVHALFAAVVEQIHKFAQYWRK

Row | Compound | IC50 (Vps34 enzyme) | IC50 [1]
1 | O=c1cc(-c2ccnc(Nc3ccccc3)n2)cc(-c2ccncc2)[nH]1 [Example 8, 4-(2-Anilinopyrimidin-4-yl)-6-(4-pyridyl)-1H-pyridin-2-one] | 6 nM | 0.066 µM
2 | Cc1nccc(Nc2cc(-c3cc(N4CCOCC4C(F)(F)F)[nH]c(=O)c3)ccn2)n1 (stereo not drawn) [Example 26, 4-[2-[(2-Methylpyrimidin-4-yl)amino]-4-pyridyl]-6-[3-(trifluoromethyl)morpholin-4-yl]-1H-pyridin-2-one] | < 5 nM | 0.01 µM
3 | O=c1cc(-c2ccnc(Nc3ccccc3)n2)cc(N2CCCCC2C(F)(F)F)[nH]1 (stereo not drawn) [Example 21, 4-(2-Anilinopyrimidin-4-yl)-6-[2-(trifluoromethyl)-1-piperidyl]-1H-pyridin-2-one] | < 5 nM | –
4 | O=c1cc(-c2ccnc(Nc3ccccc3)n2)cc(-c2ccccc2Cl)[nH]1 [Example 4, 4-(2-anilinopyrimidin-4-yl)-6-(2-chlorophenyl)-1H-pyridin-2-one] | < 5 nM | –
5 | Cc1nccc(Nc2cc(-c3cc(N4CCCCC4C(F)(F)F)[nH]c(=O)c3)ccn2)n1 (stereo not drawn) [Example 18, 4-[2-[(2-Methylpyrimidin-4-yl)amino]-4-pyridyl]-6-[2-(trifluoromethyl)-1-piperidyl]-1H-pyridin-2-one] | < 5 nM | –
6 | CCn1cc(-c2cc(-c3ccnc(Nc4ccnc(C)n4)c3)cc(=O)[nH]2)c(C(F)(F)F)n1 [Example 59, 6-[1-Ethyl-3-(trifluoromethyl)pyrazol-4-yl]-4-[2-[(2-methylpyrimidin-4-yl)amino]-4-pyridyl]-1H-pyridin-2-one] | < 5 nM | 0.005 µM
7 | Cc1nccc(Nc2cc(-c3cc(-c4ccccc4C(F)(F)F)[nH]c(=O)c3)ccn2)n1 [Example 47, 4-[2-[(2-Methylpyrimidin-4-yl)amino]-4-pyridyl]-6-[2-(trifluoromethyl)phenyl]-1H-pyridin-2-one] | < 5 nM | 0.003 µM
8 | Cc1nccc(Nc2cc(-c3cc(N4CCN(S(=O)(=O)Cc5ccc(F)cc5)CC4C(F)(F)F)[nH]c(=O)c3)ccn2)n1 (stereo not drawn) [Example 33, 6-[4-[(4-Fluorophenyl)methylsulfonyl]-2-(trifluoromethyl)piperazin-1-yl]-4-[2-[(2-methylpyrimidin-4-yl)amino]-4-pyridyl]-1H-pyridin-2-one] | < 5 nM | 0.003 µM
9 | O=c1cc(-c2ccnc(Nc3ccccc3)n2)cc(N2CCOCC2C(F)(F)F)[nH]1 (stereo not drawn) [Example 27, 4-(2-Anilinopyrimidin-4-yl)-6-[3-(trifluoromethyl)morpholin-4-yl]-1H-pyridin-2-one] | < 5 nM | 0.02 µM
10 | Cn1nccc1Nc1cc(-c2cc(-c3ccccc3C(F)(F)F)[nH]c(=O)c2)ccn1 [Example 50, 4-[2-[(2-Methylpyrazol-3-yl)amino]-4-pyridyl]-6-[2-(trifluoromethyl)phenyl]-1H-pyridin-2-one] | 55 nM | 0.254 µM
11 | O=c1cc(-c2ccnc(Nc3ccccc3)n2)cc(-c2cccnc2)[nH]1 [Example 6, 4-(2-Anilinopyrimidin-4-yl)-6-(3-pyridyl)-1H-pyridin-2-one] | < 5 nM | 0.054 µM
12 | O=c1cc(-c2ccnc(Nc3ccccc3)n2)cc(N2CCOCC2)[nH]1 [Example 10, 4-(2-anilinopyrimidin-4-yl)-6-morpholino-1H-pyridin-2-one] | < 5 nM | 0.019 µM
13 | O=c1cc(-c2ccnc(Nc3ncco3)c2)cc(N2CCOCC2C(F)(F)F)[nH]1 (stereo not drawn) [Example 40, 4-[2-(Oxazol-2-ylamino)-4-pyridyl]-6-[3-(trifluoromethyl)morpholin-4-yl]-1H-pyridin-2-one] | < 5 nM | 0.029 µM
14 | Cc1nccc(Nc2cc(-c3cc(-c4cnccc4C)[nH]c(=O)c3)ccn2)n1 [Example 55, 6-(4-Methyl-3-pyridyl)-4-[2-[(2-methylpyrimidin-4-yl)amino]-4-pyridyl]-1H-pyridin-2-one] | < 5 nM | 0.099 µM
15 | Cc1nccc(Nc2cc(-c3cc(-c4ccccc4Cl)[nH]c(=O)c3)ccn2)n1 [Example 66, 6-(2-Chlorophenyl)-4-[2-[(2-methylpyrimidin-4-yl)amino]-4-pyridyl]-1H-pyridin-2-one] | < 5 nM | –
16 | Cc1nccc(Nc2cc(-c3cc(-c4cccnc4C(F)(F)F)[nH]c(=O)c3)ccn2)n1 [Example 57, 4-[2-[(2-Methylpyrimidin-4-yl)amino]-4-pyridyl]-6-[2-(trifluoromethyl)-3-pyridyl]-1H-pyridin-2-one] | < 5 nM | 0.006 µM
17 | Cc1nc(Nc2cc(-c3cc(N4CCOCC4C(F)(F)F)[nH]c(=O)c3)ccn2)cs1 (stereo not drawn) [Example 42, 4-[2-[(2-Methylthiazol-4-yl)amino]-4-pyridyl]-6-[3-(trifluoromethyl)morpholin-4-yl]-1H-pyridin-2-one] | 13 nM | –
18 | Cc1nc(Nc2cc(-c3cc(-c4ccccc4C(F)(F)F)[nH]c(=O)c3)ccn2)cs1 [Example 52, 4-[2-[(2-Methylthiazol-4-yl)amino]-4-pyridyl]-6-[2-(trifluoromethyl)phenyl]-1H-pyridin-2-one] | 52 nM | –
19 | Cn1cnc(Nc2cc(-c3cc(-c4ccccc4C(F)(F)F)[nH]c(=O)c3)ccn2)c1 [Example 62, 4-[2-[(1-Methylimidazol-4-yl)amino]-4-pyridyl]-6-[2-(trifluoromethyl)phenyl]-1H-pyridin-2-one] | 12 nM | –
20 | CCS(=O)(=O)N1CCN(c2cc(-c3ccnc(Nc4ccnc(C)n4)c3)cc(=O)[nH]2)C(C(F)(F)F)C1 (stereo not drawn) [Example 39, 6-[4-Ethylsulfonyl-2-(trifluoromethyl)piperazin-1-yl]-4-[2-[(2-methylpyrimidin-4-yl)amino]-4-pyridyl]-1H-pyridin-2-one] | < 5 nM | 0.002 µM
